Experimental data as given in patent US20220408724A1, “METHOD FOR CONTROLLING METABOLISM OF BRANCHED FATTY ACID” (KAO CORPORATION, priority 2019, published 2022).

The compounds below were run on Staphylococcus aureus (assay: Suppression of metabolism of 14-methylhexadecanoic acid on cotton fabric). Settings: agent 250 μg/fabric g.
Type: cell-based
Protocol: (§1) A methanol solution in which 14-methylhexadecanoic acid (SIGMA-ALDRICH) was dissolved was added dropwise to 3 cm×3 cm pieces of sterilized plain-weave cotton fabric to make it adhered to the fabric. The adhesion amount of 14-methylhexadecanoic acid was set to 10 μg per piece of the plain-weave cotton fabric (100 μg/fabric g).
(§2) Further, a methanol solution in which each metabolism controlling agent was dissolved was prepared and added dropwise to the fabric to which 14-methylhexadecanoic acid adhered, and it was thereafter dried for an hour. This fabric was placed in a sterilized screw tube bottle No. 3 (Maruemu Corporation) and 100 μl of the bacterial suspension was inoculated thereto, and culture was carried out under 37° C.; conditions for 21 hours.
(§3) 3 ml of methanol was added to the screw tube bottle after culture, and extraction was carried out under ultrasonic irradiation for 30 minutes (20° C.). The extraction liquid was mixed with a (trimethylsilyl)diazomethane hexane solution (FUJIFILM Wako Pure Chemical Corporation) at 9:1 (volume ratio) and left overnight under room temperature and dark place conditions. After that, 14-methylhexadecanoic acid remaining on the fabric was quantified by GC. The quantification conditions for GC are as follows. • GC: Agilent 7890A • GC column: Agilent DB-1 30 m×250 μm×0.25 μm • Temperature rise condition: 50° C. (held for 3 minutes)-(10° C./min)-300° C. (held for 5 minutes) • Sample injection volume: 1 μl • Split ratio: 1:12 • Detector: FID
(§4) The residual amount of 14-methylhexadecanoic acid after culture on the fabric to which the metabolism controlling agent was added was quantified, and the ratio of the residual amount to that of 14-methylhexadecanoic acid in the case of adding no metabolism controlling agent (control) was calculated as a metabolism suppression rate (%). The higher a numerical value thereof is, the more the metabolism is suppressed. Note that the metabolism suppression rate was determined by the following formula:
(§5) Metabolism suppression rate(%)=[1−(100−A)/(100−B)]×100 • A: residual amount of 14-methylhexadecanoic acid of example or comparative example (μg/fabric g) • B: residual amount of 14-methylhexadecanoic acid of control (μg/fabric g)
(§6) The metabolism of 14-methylhexadecanoic acid by bacteria of the genus Staphylococcus (Staphylococcus aureus) was tested in the same manner as in example 1.
(§7) In this example, Staphylococcus aureus (strain isolated from clothing) was used as a microorganism.
(§8) Further, in this example, a bacterial suspension of 10^7 (CFU/ml) prepared by using an NB liquid medium diluted to 1/10 with ion exchange water was used as a bacterial suspension.

Structure (SMILES) | Metabolism suppression rate (%)
CCCCCCCCCCCCCCO [Example C14OH, 1-tetradecanol] | 42
CCCCCCCCCCCCCCCCO [Example C16OH, 1-hexadecanol] | 16

Each compound was assayed on Escherichia coli (NBRC3972) (assay: Suppression of metabolite 4-methylhexanoic acid from 14-methylhexadecanoic acid). Settings: agent 500 μg/fabric g.
Type: cell-based
Protocol: (§9) After culture on fabric prepared in the same manner as in the above (1), 3 ml of methanol was added, and extraction was carried out under ultrasonic irradiation for 30 minutes (20° C.). The extraction liquid was mixed with (a 1000 ppm methanol solution of) an ADAM reagent of Funakoshi Co., Ltd. at 1:1 (volume ratio) and left overnight under room temperature and dark place conditions. After that, 4-methyl-3-hexenoic acid as a metabolite from 14-methylhexadecanoic acid was quantified by HPLC. The quantification conditions are as follows.
(§10) The production amount of 4-methyl-3-hexenoic acid after culture on the fabric to which each metabolism controlling agent was added was quantified, and the ratio of the production amount to that of 4-methyl-3-hexenoic acid in the case of adding no metabolism controlling agent (control) was calculated as a metabolite suppression rate (%). The higher a numerical value thereof is, the more the metabolism is suppressed. Note that the metabolite suppression rate was determined by the following formula:
(§11) Metabolite suppression rate(%)=100×[(D−C)/D] • C: production amount of metabolite of example or comparative example (μg/fabric g) • D: production amount of metabolite of control (μg/fabric g)
(§12) The metabolism of 14-methylhexadecanoic acid by bacteria of the genus Escherichia (Escherichia coli) was tested in the same manner as in example 1.
(§13) In this example, Escherichia coli (NBRC3972) was used as a microorganism.
(§14) Further, in this example, a bacterial suspension of 10^6 (CFU/ml) prepared by using an NB liquid medium diluted to 1/10 with ion exchange water was used as a bacterial suspension.
(§15) Further, in this example, 4-methylhexanoic acid was quantified as a metabolite from 14-methylhexadecanoic acid, and the metabolite suppression rate was determined in the same manner as in example 1.
(§16) Note that, in this example, C12OH (1-dodecanol) was used as the metabolism controlling agent.

Structure (SMILES) | Metabolite suppression rate (%)
CCCCCCCCCO [Example C9OH, 1-nonyl alcohol] | 31
CCCCCCCCCCCCCCO [Example C14OH, 1-tetradecanol] | 47

Same assay, conditions: agent 1000 μg/fabric g

Structure (SMILES) | Metabolite suppression rate (%)
CCCCCCCCCO [Example C9OH, 1-nonyl alcohol] | 33
CCCCCCCCCCCCCCO [Example C14OH, 1-tetradecanol] | 77
CCCCCCCCCCCCCCCCO [Example C16OH, 1-hexadecanol] | 27

The compounds below were run on Rhodotorula mucilaginosa (assay: Suppression of metabolism of 14-methylhexadecanoic acid on cotton fabric). Settings: agent 250 μg/fabric g.
Type: cell-based
Protocol: as §1, §2, §3, §4, §5
The metabolism of 14-methylhexadecanoic acid by yeast of the genus Rhodotorula was tested in the same manner as in example 1.
In this example, Rhodotorula mucilaginosa (strain isolated from clothing) was used as a microorganism.
Further, in this example, the bacteria were precultured under conditions of a PDA agar medium (Difco), 30° C.; and 48 hours.
Further, in this example, a bacterial suspension of 10^7 (CFU/ml) prepared by using a PDB liquid medium (Difco) diluted to 1/10 with ion exchange water was used as a bacterial suspension.

Structure (SMILES) | Metabolism suppression rate (%)
CCCCCCCCCO [Example C9OH, 1-nonyl alcohol] | 14
CCCCCCCCCCCCOCCO [Example C12E1, ethylene glycol mono-1-dodecyl ether] | 24
CCCCCCCCCCCCCCO [Example C14OH, 1-tetradecanol] | 14
CCCCCCCCCCCCCCCCO [Example C16OH, 1-hexadecanol] | 24

These compounds were tested on Staphylococcus aureus (assay: Measurement of viable bacterial count on fabric). Settings: agent 250 μg/fabric g.
Type: cell-based
Protocol: (§17) After culture on fabric prepared in the same manner as in the above (1), 9 mL of an LP diluent (manufactured by NIHON PHARMACEUTICAL CO., LTD.) was added, and the extraction of the bacteria was carried out under ultrasound for 10 minutes. The extraction liquid was poured and mixed to an SCD-LP agar medium (NIHON PHARMACEUTICAL CO., LTD.), and culture was thereafter carried out at 37° C.; for a day. The number of colonies obtained on each piece of the fabric was counted, and a common logarithm value thereof was measured as the viable bacterial count. […] In addition, the […], the more the viable bacterial count of the microorganism is maintained.
as §6, §7, §8, §16

Structure (SMILES) | Bacterial count (Log (cfu/fabric cm^2))
CCCCCCCCCCCCCCO [Example C14OH, 1-tetradecanol] | 5.6 Log (cfu/fabric cm^2)
CCCCCCCCCCCCCCCCO [Example C16OH, 1-hexadecanol] | 6.1 Log (cfu/fabric cm^2)

These compounds were tested on Rhodotorula mucilaginosa (assay: Suppression of metabolite 4-methylhexanoic acid from 14-methylhexadecanoic acid). Settings: agent 250 μg/fabric g.
Type: cell-based
Protocol: The extraction liquid was mixed with (a 1000 ppm methanol solution of) an ADAM reagent of Funakoshi Co., Ltd. at 1:1 (volume ratio) and left overnight under room temperature and dark place conditions. […] The quantification conditions are as follows. […] The higher a numerical value thereof is, the more the metabolism is suppressed. Note that the metabolite suppression rate was determined by the following formula: […] In this example, Rhodotorula mucilaginosa (strain isolated from clothing) was used as a microorganism. Further, in this example, the bacteria were precultured under conditions of a PDA agar medium (Difco), 30° C.; and 48 hours. Further, in this example, a bacterial suspension of 10^7 (CFU/ml) prepared by using a PDB liquid medium (Difco) diluted to 1/10 with ion exchange water was used as a bacterial suspension.

Structure (SMILES) | Metabolite suppression rate (%)
CCCCCCCCCO [Example C9OH, 1-nonyl alcohol] | 21
CCCCCCCCCCCCOCCO [Example C12E1, ethylene glycol mono-1-dodecyl ether] | 41
CCCCCCCCCCCCCCO [Example C14OH, 1-tetradecanol] | 45
CCCCCCCCCCCCCCCCO [Example C16OH, 1-hexadecanol] | 38

These compounds were tested on Staphylococcus aureus in the same assay as above. Settings: agent 250 μg/fabric g.
Type: cell-based
Protocol: as §9, §10, §11, §6, §7, §8, §15, §16

Structure (SMILES) | Metabolite suppression rate (%)
CCCCCCCCCCCCCCO [Example C14OH, 1-tetradecanol] | 53
CCCCCCCCCCCCCCCCO [Example C16OH, 1-hexadecanol] | 20

These compounds were tested on Escherichia coli (NBRC3972) (assay: Suppression of metabolism of 14-methylhexadecanoic acid on cotton fabric). Settings: agent 500 μg/fabric g.
Type: cell-based
Protocol: as §1, §2, §3, §4, §5, §12, §13, §14, §16

Structure (SMILES) | Metabolism suppression rate (%)
CCCCCCCCCO [Example C9OH, 1-nonyl alcohol] | 13
CCCCCCCCCCCCCCO [Example C14OH, 1-tetradecanol] | 27

Same assay, conditions: agent 1000 μg/fabric g

Structure (SMILES) | Metabolism suppression rate (%)
CCCCCCCCCO [Example C9OH, 1-nonyl alcohol] | 25
CCCCCCCCCCCCCCO [Example C14OH, 1-tetradecanol] | 67
CCCCCCCCCCCCCCCCO [Example C16OH, 1-hexadecanol] | 18

What follows are compounds tested on Escherichia coli (NBRC3972) (assay: Measurement of viable bacterial count on fabric). Settings: agent 500 μg/fabric g.
Type: cell-based
Protocol: as §17, §12, §13, §14, §16

Structure (SMILES) | Bacterial count (Log (cfu/fabric cm^2))
CCCCCCCCCO [Example C9OH, 1-nonyl alcohol] | 6.5 Log (cfu/fabric cm^2)
CCCCCCCCCCCCCCO [Example C14OH, 1-tetradecanol] | 6.7 Log (cfu/fabric cm^2)

Same assay, conditions: agent 1000 μg/fabric g

Structure (SMILES) | Bacterial count (Log (cfu/fabric cm^2))
CCCCCCCCCO [Example C9OH, 1-nonyl alcohol] | 6.3 Log (cfu/fabric cm^2)
CCCCCCCCCCCCCCO [Example C14OH, 1-tetradecanol] | 6.5 Log (cfu/fabric cm^2)
CCCCCCCCCCCCCCCCO [Example C16OH, 1-hexadecanol] | 6.6 Log (cfu/fabric cm^2)
